Assay results from ChEMBL document CHEMBL1201862, “PubChem BioAssay data set” (2004).
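Interpolation was linear, between the two tested concentrations surrounding the appropriate level; five concentrations were tested over 48 hours in 96-well plates. GI50: concentration for 50% inhibition of growth.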 Activity calls are given as the source filed them. Rule as the data show it: active = GI50 up to about 1.1 µM and inactive = higher.

Tests used:
Assay in all cases: inhibition of tumour cell growth, NCI panel, 48 h
UACC-62 = tested on: UACC-62
OVCAR-4 = tested on: OVCAR-4
COLO 205 = tested on: COLO 205
SK-MEL-5 = tested on: SK-MEL-5
DMS-114 = tested on: DMS-114
SN12C = tested on: SN12C
HOP-92 = tested on: HOP-92
CAKI-1 = tested on: CAKI-1
MDA-N = tested on: MDA-N
OVCAR-5 = tested on: OVCAR-5
T47D = tested on: T47D
SF-539 = tested on: SF-539
KM12 = tested on: KM12
HCT-15 = tested on: HCT-15
HL-60 = tested on: HL-60
U-251 = tested on: U-251
NCI-H522 = tested on: NCI-H522
LXFL 529 = tested on: LXFL 529
Malme-3M = tested on: Malme-3M
IGROV-1 = tested on: IGROV-1
HT-29 = tested on: HT-29
NCI-H460 = tested on: NCI-H460
CCRF-CEM = tested on: CCRF-CEM
RXF 393 = tested on: RXF 393
XF498 = tested on: XF498
NCI-H23 = tested on: NCI-H23
HCC 2998 = tested on: HCC 2998
MDA-MB-231 = tested on: MDA-MB-231
DU-145 = tested on: DU-145
SK-OV-3 = tested on: SK-OV-3
HCT-116 = tested on: HCT-116
NCI-H226 = tested on: NCI-H226
M14 = tested on: M14
SK-MEL-2 = tested on: SK-MEL-2
A549 = tested on: A549
KM-20L2 = tested on: KM-20L2
MDA-MB-435 = tested on: MDA-MB-435
SK-MEL-28 = tested on: SK-MEL-28
SF-295 = tested on: SF-295
BT-549 = tested on: BT-549
MCF7 = tested on: MCF7
SNB-75 = tested on: SNB-75
SNB-19 = tested on: SNB-19
DLD-1 = tested on: DLD-1
SF-268 = tested on: SF-268
EKVX = tested on: EKVX
HOP-62 = tested on: HOP-62
Hs-578T = tested on: Hs-578T
SNB-78 = tested on: SNB-78
A498 = tested on: A498
DMS-273 = tested on: DMS-273
PC-3 = tested on: PC-3
UO-31 = tested on: UO-31
OVCAR-8 = tested on: OVCAR-8
OVCAR-3 = tested on: OVCAR-3
SW-620 = tested on: SW-620
MOLT-4 = tested on: MOLT-4
UACC-257 = tested on: UACC-257
LOX IMVI = tested on: LOX IMVI
786-0 = tested on: 786-0
HOP-18 = tested on: HOP-18
M19-MEL = tested on: M19-MEL
K562 = tested on: K562
TK-10 = tested on: TK-10
ACHN = tested on: ACHN
RXF 631 = tested on: RXF 631
RPMI-8226 = tested on: RPMI-8226

`Cc1cc(N(CCC#N)S(=O)(=O)c2ccccc2)ccc1/C=N/c1ccc(C(=O)O)cc1` was tested. Which GI50 (UACC-62) did it give?
The GI50 was 17.4 µM (inactive).

And the GI50 (OVCAR-4)?
Its GI50 is 5.62 µM (inactive).

What about the GI50 (COLO 205) of the same molecule?
The GI50 was 6.41 µM (inactive).

And the GI50 (SK-MEL-5)?
The GI50 was 13.8 µM (inactive).

And the GI50 (DMS-114)?
Its GI50 is 3.41 µM (inactive).

What about the GI50 (SN12C) of the same molecule?
The GI50 was 6.21 µM (inactive).

And the GI50 (HOP-92)?
The GI50 was > 100 µM (inactive).

And the GI50 (CAKI-1)?
Its GI50 is 2.23 µM (inactive).

And the GI50 (MDA-N)?
The GI50 was > 100 µM (inactive).

And the GI50 (OVCAR-5)?
Its GI50 is 20.3 µM (inactive).

What about the GI50 (T47D) of the same molecule?
Its GI50 is > 100 µM (inactive).

What about the GI50 (SF-539) of the same molecule?
The GI50 was 15.2 µM (inactive).

And the GI50 (KM12)?
Its GI50 is 20.4 µM (inactive).

What about the GI50 (HCT-15) of the same molecule?
Its GI50 is 7.53 µM.

And the GI50 (HL-60)?
The GI50 was 5.21 µM (inactive).

And the GI50 (U-251)?
The GI50 was 21.3 µM (inactive).

And the GI50 (NCI-H522)?
The GI50 was 5.51 µM (inactive).

What about the GI50 (LXFL 529) of the same molecule?
The GI50 was 1.76 µM (inactive).

And the GI50 (Malme-3M)?
The GI50 was 4.61 µM (inactive).

What about the GI50 (IGROV-1) of the same molecule?
Its GI50 is 30 µM (inactive).

What about the GI50 (HT-29) of the same molecule?
Its GI50 is 15.7 µM (inactive).

And the GI50 (NCI-H460)?
Its GI50 is 19.1 µM (inactive).

What about the GI50 (CCRF-CEM) of the same molecule?
Its GI50 is 6.4 µM (inactive).

What about the GI50 (RXF 393) of the same molecule?
The GI50 was 1.7 µM (inactive).

And the GI50 (XF498)?
The GI50 was 8.71 µM (inactive).

What about the GI50 (NCI-H23) of the same molecule?
Its GI50 is 16.1 µM (inactive).

And the GI50 (HCC 2998)?
Its GI50 is 16.8 µM (inactive).

And the GI50 (MDA-MB-231)?
The GI50 was > 100 µM (inactive).

And the GI50 (DU-145)?
The GI50 was > 100 µM (inactive).

What about the GI50 (SK-OV-3) of the same molecule?
Its GI50 is 34.1 µM (inactive).

And the GI50 (HCT-116)?
Its GI50 is 7.87 µM (inactive).

And the GI50 (NCI-H226)?
Its GI50 is 21.8 µM (inactive).

What about the GI50 (M14) of the same molecule?
The GI50 was 9.77 µM (inactive).

What about the GI50 (SK-MEL-2) of the same molecule?
The GI50 was 6.7 µM (inactive).

And the GI50 (A549)?
Its GI50 is 31.6 µM (inactive).

What about the GI50 (KM-20L2) of the same molecule?
Its GI50 is 9.82 µM (inactive).

And the GI50 (MDA-MB-435)?
Its GI50 is > 100 µM (inactive).

What about the GI50 (SK-MEL-28) of the same molecule?
The GI50 was 15.3 µM (inactive).

What about the GI50 (SF-295) of the same molecule?
Its GI50 is 29.1 µM (inactive).

And the GI50 (BT-549)?
Its GI50 is > 100 µM (inactive).

And the GI50 (MCF7)?
Its GI50 is > 100 µM (inactive).

What about the GI50 (SNB-75) of the same molecule?
The GI50 was 14 µM (inactive).

And the GI50 (SNB-19)?
The GI50 was 29.6 µM (inactive).

And the GI50 (DLD-1)?
The GI50 was 1.99 µM (inactive).

And the GI50 (SF-268)?
The GI50 was > 41 µM (inactive).

And the GI50 (EKVX)?
Its GI50 is 17.9 µM (inactive).

And the GI50 (HOP-62)?
Its GI50 is 31 µM (inactive).

What about the GI50 (Hs-578T) of the same molecule?
Its GI50 is 56 µM (inactive).

And the GI50 (SNB-78)?
The GI50 was 12.3 µM (inactive).

And the GI50 (A498)?
Its GI50 is 29.6 µM (inactive).

And the GI50 (DMS-273)?
Its GI50 is 6.61 µM (inactive).

And the GI50 (PC-3)?
The GI50 was > 100 µM (inactive).

And the GI50 (UO-31)?
The GI50 was 11.1 µM (inactive).

What about the GI50 (OVCAR-8) of the same molecule?
The GI50 was 7.71 µM (inactive).

What about the GI50 (OVCAR-3) of the same molecule?
Its GI50 is 10.1 µM (inactive).

And the GI50 (SW-620)?
The GI50 was 7.43 µM (inactive).

And the GI50 (MOLT-4)?
The GI50 was 6.98 µM (inactive).

What about the GI50 (UACC-257) of the same molecule?
The GI50 was 16.9 µM (inactive).

What about the GI50 (LOX IMVI) of the same molecule?
The GI50 was 13.2 µM (inactive).

What about the GI50 (786-0) of the same molecule?
The GI50 was 5.45 µM (inactive).

And the GI50 (HOP-18)?
Its GI50 is 3.24 µM (inactive).

And the GI50 (M19-MEL)?
The GI50 was 2.75 µM (inactive).

What about the GI50 (K562) of the same molecule?
The GI50 was 7.96 µM (inactive).

And the GI50 (TK-10)?
Its GI50 is 8.73 µM (inactive).

What does the source list for `O=C1C(=O)C(Br)(Br)C(Br)=C1Br`?
GI50 (UACC-62): 18.5 µM (inactive); GI50 (OVCAR-4): 22.4 µM (inactive); GI50 (COLO 205): 17.1 µM (inactive); GI50 (SK-MEL-5): 15.4 µM (inactive); GI50 (DMS-114): 18.8 µM (inactive); GI50 (SN12C): 23.7 µM (inactive); GI50 (HOP-92): 14 µM (inactive); GI50 (CAKI-1): 18.4 µM (inactive); GI50 (OVCAR-5): 13.6 µM (inactive); GI50 (SF-539): 19 µM (inactive); GI50 (KM12): 12.9 µM (inactive); GI50 (HCT-15): 19.8 µM; GI50 (HL-60): 18.7 µM (inactive); GI50 (U-251): 25.2 µM (inactive); GI50 (NCI-H522): 2.33 µM (inactive); GI50 (LXFL 529): 15.2 µM (inactive); GI50 (Malme-3M): 20 µM (inactive); GI50 (IGROV-1): 38.1 µM (inactive); GI50 (HT-29): 19 µM (inactive); GI50 (NCI-H460): 34 µM (inactive); GI50 (ACHN): 15.9 µM (inactive); GI50 (CCRF-CEM): 16.2 µM (inactive); GI50 (RXF 393): > 10 µM (inactive); GI50 (NCI-H23): > 10 µM (inactive); GI50 (HCC 2998): 20.5 µM (inactive); GI50 (SK-OV-3): > 100 µM (inactive); GI50 (M14): 17.6 µM (inactive); GI50 (SK-MEL-2): 17.1 µM (inactive); GI50 (A549): 37.4 µM (inactive); GI50 (KM-20L2): 15 µM (inactive); GI50 (SK-MEL-28): 15.6 µM (inactive); GI50 (SF-295): 57.4 µM (inactive); GI50 (SNB-75): 14.4 µM (inactive); GI50 (SNB-19): 68.9 µM (inactive); GI50 (DLD-1): 18.8 µM (inactive); GI50 (SF-268): > 10 µM (inactive); GI50 (EKVX): 25.4 µM (inactive); GI50 (HOP-62): > 100 µM (inactive); GI50 (RXF 631): 37.9 µM (inactive); GI50 (DMS-273): 22.3 µM (inactive); GI50 (UO-31): 17.8 µM (inactive); GI50 (OVCAR-8): 17.3 µM (inactive); GI50 (OVCAR-3): 15.5 µM (inactive); GI50 (SW-620): 13.8 µM (inactive); GI50 (MOLT-4): 24.4 µM (inactive); GI50 (UACC-257): 20.3 µM (inactive); GI50 (LOX IMVI): 13.7 µM (inactive); GI50 (786-0): 16.4 µM (inactive); GI50 (HOP-18): 15.6 µM (inactive); GI50 (M19-MEL): 19.1 µM (inactive); GI50 (K562): 20 µM (inactive); GI50 (TK-10): 19.4 µM (inactive); GI50 (RPMI-8226): 22.3 µM (inactive)
